Measurements published in patent publication US6841549B1, “Condensed imidazole compounds and a therapeutic agent for diabetes mellitus” (Eisai Co., Ltd., priority 1999, dated 2005).
Where a name gives a salt, the structure may show the parent alone.

Legend:
[1] = tested on: primary cultured rat hepatic cells; test: Inhibition of NECA-stimulated glucose production in primary cultured rat hepatic cells; type: cell-based; conditions: primary cultured Wistar rat hepatic cells, NECA 0.1, 1 hour; read-out: IC50 for inhibition of NECA-stimulated glucose release
Protocol: Hepatic cells were separated by a collagenase perfusion method from livers of male rats of Wistar strain and subjected to a primary culture in a William's Medium E containing 5% calf serum, 10^−6 M insulin and 10^−7 M dexamethasone. After 1 day, the hepatic cells were washed with a Krebs-Ringer Bicarbonate buffer (mM) (NaCl 118, KCl 4.8, KH2PO4 1.2, MgSO4 1.2, CaCl2 3.4, HEPES 10, NaHCO3 25) pH 7.4 (KRB) containing 10 mM HEPES and 0.1% bovine serum albumin and KRB was added thereto, then incubated at 37° C. After 30 minutes, NECA (N-ethylcarboxamide adenosine) (final concentration: […]) and a test compound were added thereto at the same time, the mixture was incubated for additional one hour, and the amount of glucose released into the incubation medium was measured.

[2] = biological target: T1, adenosine A2a receptor (Homo sapiens, UniProt P29274); test: Adenosine A2a receptor binding assay (3H-CGS21680); conditions: 3H-CGS21680 binding, membrane over-expressing A2a receptor, Cheng-Prusoff; read-out: inhibition constant (Ki value)
T1 construct: purchased Receptor Biology Inc
Protocol: A membrane specimen prepared by over-expression of adenosine A2a receptor was purchased from Receptor Biology Inc., and used to carry out adenosine A2a receptor binding assays. The purchased membrane specimen was suspended at a concentration of 22.2 μg/ml inan incubation buffer (20 mM HEPES, 10 mm MgCl2 and 100 mM NaCl, pH 7.4). To 0.45 ml of this membrane specimen were added 0.25ml of tritium-labeled^3H-CGS21680 (500 nM; 30 Ci/mmol) and 0.025 ml of the test compound. The solution of the test compound was prepared by dissolving the compound at a concentration of 20 mM in DMSO and then successively diluting the solution 10-fold with the incubation buffer. […] Thereafter, the glass fiber filter was transferred to a vial bottle, a scintillator was added thereto, and the radioactivity on the filter was measured by a liquid scintillation counter. The rate of inhibition of (^3H-CGS21680) binding to the A2a receptor by the test compound was calculated using the following equation, and from this rate of inhibition, IC50 was calculated. […]
The total binding amount is ^3H-CGS21680 binding radioactivity in the absence of the test compound. The non-specific binding amount is ^3H-CGS21680 binding radioactivity in the presence of […] of RPIA. The binding amount in the presence of drug is ^3H-CGS21680 binding radioactivity in the presence of the test compound of various concentrations. […]

[3] = biological target: T2, Human adenosine A2b receptor (Homo sapiens, UniProt P29275); test: Inhibition of NECA-stimulated cAMP production in receptor-expressing CHOK1 cells; type: cell-based; conditions: CHOK1 cells over-expressing human A2b receptor, NECA 30 nM
T2 construct: expressed in transfected cells; host or cells: CHOK1 cells
T2 sequence (P29275 1-332): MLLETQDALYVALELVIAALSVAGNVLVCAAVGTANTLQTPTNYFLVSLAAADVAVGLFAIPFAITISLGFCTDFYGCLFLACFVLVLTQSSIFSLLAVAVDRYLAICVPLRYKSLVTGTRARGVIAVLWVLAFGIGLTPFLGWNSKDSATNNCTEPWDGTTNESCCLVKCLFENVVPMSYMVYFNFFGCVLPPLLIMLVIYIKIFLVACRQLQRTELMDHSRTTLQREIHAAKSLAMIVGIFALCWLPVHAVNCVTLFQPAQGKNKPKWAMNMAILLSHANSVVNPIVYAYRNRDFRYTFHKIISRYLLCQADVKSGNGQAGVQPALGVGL
Protocol: Human adenosine A2b receptor cDNA was over-expressed in CHOK1 cells. The cells were uniformly placed on a 24-well plate at a density of 1.5×10^5cells/well, incubated overnight and then used for the assays. Affinity of the test compound for the A2b receptor was evaluated by using, as an index, the rate of suppression of the amount of cAMP produced by stimulation of an adenosine agonist NECA (30 nM) in the presence of the test compound. Thus, the plate was washed twice with 2 ml/well of Krebs-Ringer-Bicarbonate buffer (KRB) (mM) (NaCl 118, KCl 4.8, KH2PO4 1.2, MgSO4 1.2, CaCl2 3.4, HEPES 10, NaHCO3 25, pH 7.4) and then pre-incubated (0.5 ml/well) for 30 minutes. Thereafter, a mixed solution containing 600 μM Ro-20-1724 (phosphodiesterase inhibitor), 180 nM NECA, and a test compound at a concentration 6-times higher than in the reaction solution was added in an amount of […]. After 15 minutes, the reaction was stopped by replacing the reaction solution by 0.1 N HCl (300 μl/well). Measurement of cAMP was carried out using an Amersham cAMP EIA Kit.
The rate of inhibition of NECA-stimulated cAMP production by the test compound was calculated using the following equation: Rate of Inhibition (%)=[1−{(cAMP amount in the presence of NECA and test compound-Basal cAMP amount)/(cAMP amount stimulated only by NECA−Basal cAMP amount)}]×100.
IC50 was calculated from the rate of inhibition.

[4] = tested on: spontaneously diabetic mice (KK-Ay/Ta Jcl); test: Action on hyperglycemia in spontaneously diabetic mice (single administration); type: in vivo; conditions: male KK-Ay/Ta Jcl mice, 10 mg/kg oral, p < 0.01 vs. control (72.5 ± 3.7)
Protocol: Animals: Seven male KK-A^y/Ta Jcl mice for each group (purchased from Nippon Clair) Preparation and Administration of Test Compound: A test compound in a dose as shown in Table 1 was suspended in 0.5% aqueous methyl cellulose solution and was orally administered in a volume of 10 ml/kg. Collection of Blood Samples and Determination of Blood Sugar: Blood was collected from tail veins just before administration of the test compound and also 5 hours after the administration and blood sugar was determined. Method: Tail vein of a mouse was injured by a razor without anesthetization to bleed slightly. The blood (15 μl) was collected and immediately mixed with 135 μl of 0.6 M perchloric acid. Glucose in the supernatant separated by centrifugation (at 1500 g for10 minutes at 4° C. usingacooling centrifuge GS-6KR from Beckmann) was determined by Glucose CII Test Wako (Wako Pure Chemicals). The results are shown in terms of “(% ratio of blood sugar 5 hours after the administration to the blood sugar before the administration)±(standard error)”. The data were subjected to one-way layout analysis of variance and then subjected to multiple comparison of Dunnett type. Difference with p<0.05 was deemed significant.

T1 sequence (P29274 whole entry): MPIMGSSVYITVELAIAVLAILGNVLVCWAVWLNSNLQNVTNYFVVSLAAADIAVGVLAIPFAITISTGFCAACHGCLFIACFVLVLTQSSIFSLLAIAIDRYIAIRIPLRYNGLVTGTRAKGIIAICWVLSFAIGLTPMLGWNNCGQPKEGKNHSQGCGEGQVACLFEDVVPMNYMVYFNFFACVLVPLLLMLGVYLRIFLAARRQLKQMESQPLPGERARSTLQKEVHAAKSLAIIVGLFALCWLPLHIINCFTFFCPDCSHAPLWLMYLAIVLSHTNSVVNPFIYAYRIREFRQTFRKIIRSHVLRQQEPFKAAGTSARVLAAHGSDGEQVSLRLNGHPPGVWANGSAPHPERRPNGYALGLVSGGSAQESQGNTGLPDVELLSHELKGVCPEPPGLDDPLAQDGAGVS

| IC50 [1] | Ki [2] | IC50 [3] | SMILES | % ratio of blood sugar 5 hours after the administration to the blood sugar before the administration ± standard error [4] |
| --- | --- | --- | --- | --- |
| 8.4 nM | 9.6 nM | – | C=CCn1c(-c2cccc(F)c2)nc2c(N)nc(C#CC3(O)CCC3)nc21 [Example 20, 1-{2-[9-Allyl-6-amino-8-(3-fIuorophenyl)-9H-2-purinyl]-1-ethynyl]}-1-cyclobutanol hydrochloride] | – |
| 7.6 nM | 3.2 nM | 11 nM | Cl.Cn1cc(-n2c(-c3cccc(F)c3)nc3c(N)ncnc32)ccc1=O [Example 5, 5-[6-Amino-8-(3-fluorophenyl)-9H-9-purinyl]-1-methyl-1,2-dihydro-2-pyridinone hdrochloride] | 47.3 ± 7.2% |
